From article PMC9459109, “A higher spectral range of beetle bioluminescence with infraluciferin” (Frontiers in Bioengineering and Biotechnology, 2022)

Key:
Conditions in all cases: saturating DL-infraluciferin (DL-iLH2) as co-substrate
[1] = target: WT Fluc (Photinus pyralis firefly luciferase, Ppy Fluc) (Photinus pyralis, UniProt P08659, E354R/D357Y)
[2] = target: WT Fluc (Photinus pyralis firefly luciferase, Ppy Fluc) (Photinus pyralis, UniProt P08659)
[3] = system: T1, Eluc; test: bioluminescence, ATP […] to […], Hanes-Woolf plot; assay type: biochemical, Pyrearinus termitilluminans
T1 construct: 10X N-terminal His tag, pET16b, E. coli BL21(DE3) pLysS, Ni-NTA purified; amplified from plasmid pLR6-Eluc

Chain of WT Fluc (Photinus pyralis firefly luciferase, Ppy Fluc) (Photinus pyralis, UniProt P08659) (P08659 whole entry): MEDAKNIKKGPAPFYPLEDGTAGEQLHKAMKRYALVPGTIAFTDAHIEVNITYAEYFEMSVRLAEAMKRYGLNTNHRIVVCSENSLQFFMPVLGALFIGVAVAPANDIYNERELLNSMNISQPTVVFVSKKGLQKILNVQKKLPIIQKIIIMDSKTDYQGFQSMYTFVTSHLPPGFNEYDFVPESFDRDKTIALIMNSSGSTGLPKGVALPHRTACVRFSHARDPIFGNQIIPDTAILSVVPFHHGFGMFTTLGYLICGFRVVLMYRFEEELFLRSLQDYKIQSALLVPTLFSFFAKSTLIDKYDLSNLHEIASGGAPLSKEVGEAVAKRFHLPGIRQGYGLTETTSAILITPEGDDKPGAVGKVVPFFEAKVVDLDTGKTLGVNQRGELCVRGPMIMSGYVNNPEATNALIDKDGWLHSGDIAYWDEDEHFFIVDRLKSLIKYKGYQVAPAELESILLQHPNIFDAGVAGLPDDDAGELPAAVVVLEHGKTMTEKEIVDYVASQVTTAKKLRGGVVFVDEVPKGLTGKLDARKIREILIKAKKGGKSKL
Chain of WT Fluc (Photinus pyralis firefly luciferase, Ppy Fluc) (Photinus pyralis, UniProt P08659, E354R/D357Y) (P08659 whole entry E354R/D357Y): as the sequence (P08659 whole entry) above, with E354R, D357Y counted along it

Nc1ncnc2c1ncn2[C@@H]1O[C@H](COP(=O)(O)OP(=O)(O)OP(=O)(O)O)[C@@H](O)[C@H]1O [ATP]
Km [1]: Kms for ATP in the presence of DL-iLH2 (ATP(iLH2))
Km [2]: 160 µM
Km [3]: 200 µM
